Here are results for one compound from patent EP4714938A1, “HDAC1/2 SELECTIVE INHIBITOR AND USE THEREOF” (Wigen Biomedicine Technology (Shanghai) Co., Ltd., priority 2023, dated 2024).

The structures appear in SMILES notation. Where two headings read alike, the source gives them in different places.

Series [1] concerns H3K 27 Acetyl lysine. The experiment in a line: Intracellular H3K 27 acetyl lysine level by ELISA in HeLa cells. It counts as cell-based. Particulars: 24 h of treatment. As to the method:
HeLa cells were seeded into a 96-well plate at 20000 cells/well. After overnight adherence culture, the serially diluted compound was added. After 24 h of treatment, intracellular levels of acetyl lysine and H3K 27 acetyl lysine were quantified by ELISA. Table 8. Effect of compound of the present disclosure on levels of acetyl lysine and H3K 27 acetyl lysine

For series [2], the target named is T1, HDAC11 (Homo sapiens, UniProt Q96DB2).
T1 sequence (Q96DB2 1-347): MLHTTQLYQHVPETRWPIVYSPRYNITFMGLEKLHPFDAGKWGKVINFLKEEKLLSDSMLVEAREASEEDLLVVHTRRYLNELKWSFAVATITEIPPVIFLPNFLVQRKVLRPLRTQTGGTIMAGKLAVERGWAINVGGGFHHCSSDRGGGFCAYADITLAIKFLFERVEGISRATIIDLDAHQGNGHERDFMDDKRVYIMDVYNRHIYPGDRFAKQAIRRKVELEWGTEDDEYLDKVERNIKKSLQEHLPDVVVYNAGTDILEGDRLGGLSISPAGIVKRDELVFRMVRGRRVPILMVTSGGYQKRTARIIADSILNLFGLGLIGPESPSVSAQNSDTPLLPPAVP
The experiment in a line: HDAC enzyme inhibitory activity, FRET method. The format is biochemical. As to conditions: Table 6; read-out: IC50 HDAC subtype 11.
Description: (§1) The compounds of the present disclosure were assayed for enzyme inhibitory activity against various subtypes of HDAC enzymes by the FRET method. The various subtypes of HDAC enzymes were obtained either through purification or direct purchase of assay kits.
(§2) The specific method was as follows: The enzyme was added to a 384-well plate, and a reaction buffer was added to the control well. Serially diluted DMSO sample solutions were added to the reaction wells, and the plate was incubated at room temperature for 15 min. Then a chromogenic agent was added to stop the reaction, and fluorescence was generated. The fluorescence intensity was measured using an EnVision multi-label microplate reader (excitation: 355 nm, emission: 460 nm). The endpoint value was read after the color development reached stability. The inhibition IC50 of the compounds was calculated using GraphPad Prism4 software relative to DMSO.

For series [3], the target named is HDAC2 (Homo sapiens, UniProt Q92769). The experiment in a line: HDAC enzyme inhibitory activity, FRET method. It counts as biochemical.
Description: as §1, §2
For series [4], the target named is HDAC9 (Homo sapiens, UniProt Q9UKV0). The experiment in a line: HDAC enzyme inhibitory activity, FRET method. It counts as biochemical. As to conditions: Table 6; read-out: IC50 HDAC subtype 9.
Description: as §1, §2
Series [5] concerns the target HDAC4 (Homo sapiens, UniProt P56524). The experiment in a line: HDAC enzyme inhibitory activity, FRET method. The format is biochemical. Particulars: Table 6; read-out: IC50 HDAC subtype 4.
Description: as §1, §2
Series [6] has as its target T2, HDAC8 (Homo sapiens, UniProt Q9BY41).
T2 sequence (Q9BY41 1-377): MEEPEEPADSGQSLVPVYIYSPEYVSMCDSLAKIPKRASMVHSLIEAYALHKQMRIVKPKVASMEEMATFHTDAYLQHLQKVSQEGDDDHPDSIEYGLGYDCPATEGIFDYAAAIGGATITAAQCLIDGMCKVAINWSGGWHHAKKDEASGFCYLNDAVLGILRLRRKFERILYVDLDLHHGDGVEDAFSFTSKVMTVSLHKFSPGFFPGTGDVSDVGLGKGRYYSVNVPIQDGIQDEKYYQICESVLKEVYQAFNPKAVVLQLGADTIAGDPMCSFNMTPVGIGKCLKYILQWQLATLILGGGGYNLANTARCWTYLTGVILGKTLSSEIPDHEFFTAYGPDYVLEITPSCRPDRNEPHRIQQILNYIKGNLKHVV
The experiment in a line: HDAC enzyme inhibitory activity, FRET method. The format is biochemical. Particulars: Table 6; read-out: IC50 HDAC subtype 8.
Description: as §1, §2

The target of series [7] is T3, HDAC7 (Homo sapiens, UniProt Q8WUI4).
T3 sequence (Q8WUI4 1-952): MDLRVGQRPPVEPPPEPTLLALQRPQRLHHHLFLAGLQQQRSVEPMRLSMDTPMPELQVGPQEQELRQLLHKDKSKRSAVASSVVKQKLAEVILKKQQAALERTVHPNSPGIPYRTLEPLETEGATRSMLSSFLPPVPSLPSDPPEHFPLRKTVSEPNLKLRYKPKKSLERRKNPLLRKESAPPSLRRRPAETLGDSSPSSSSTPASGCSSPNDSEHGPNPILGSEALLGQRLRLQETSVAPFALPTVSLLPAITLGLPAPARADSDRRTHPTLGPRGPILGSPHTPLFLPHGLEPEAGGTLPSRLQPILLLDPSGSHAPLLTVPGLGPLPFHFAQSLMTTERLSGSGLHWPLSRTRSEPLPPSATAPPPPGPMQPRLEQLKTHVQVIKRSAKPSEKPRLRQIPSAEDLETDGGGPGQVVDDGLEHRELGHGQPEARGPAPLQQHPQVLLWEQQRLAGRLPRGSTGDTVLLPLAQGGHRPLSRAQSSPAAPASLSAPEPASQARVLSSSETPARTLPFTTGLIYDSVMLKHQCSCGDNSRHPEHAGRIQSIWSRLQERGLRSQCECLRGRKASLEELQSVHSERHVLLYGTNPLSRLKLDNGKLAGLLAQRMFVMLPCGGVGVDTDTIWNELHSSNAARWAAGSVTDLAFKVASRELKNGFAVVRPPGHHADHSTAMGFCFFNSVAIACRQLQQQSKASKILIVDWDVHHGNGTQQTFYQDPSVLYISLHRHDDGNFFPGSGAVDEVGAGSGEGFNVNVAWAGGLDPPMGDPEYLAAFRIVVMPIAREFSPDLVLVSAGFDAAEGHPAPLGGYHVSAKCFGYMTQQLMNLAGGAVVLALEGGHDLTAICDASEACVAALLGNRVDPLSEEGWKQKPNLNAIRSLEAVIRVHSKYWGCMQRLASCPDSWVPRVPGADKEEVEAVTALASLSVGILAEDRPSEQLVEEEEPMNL
The experiment in a line: HDAC enzyme inhibitory activity, FRET method. Particulars: Table 6; read-out: IC50 HDAC subtype 7. It counts as biochemical.
Description: as §1, §2

The test system of series [8] is Mouse colon cancer MC38 cells. Particulars: MC-38.
Description: Female C57BL6N mice (aged 6 weeks, 18-22 g) were provided by Vital River Laboratory Animal Technology Co., Ltd. (China) and used one week after quarantine and acclimation. All animals were kept in a room at 23±2 °C with a relative humidity of 50±5%, artificial lighting was provided from 08:00 to 20:00 every day, and the air was exchanged 13-18 times per hour.
Mouse colon cancer MC38 cells were cultured conventionally in 1640 medium containing 10% fetal bovine serum in an incubator at 37 °C with 5% CO2. After being subcultured, the cells were collected when they reached the desired amount. The C57BL6N mice were subcutaneously injected with 2 × 10^6 MC38 cells on the right side to form tumors. After the tumors grew to about 100 mm^3, the animals were randomly grouped for administration. Tumor volumes were measured with a caliper on day 3, day 7, day 10, day 14, day 17, and day 21 after the administration. The ability of the compounds to inhibit tumor growth was evaluated according to the tumor growth inhibition rate (TGI) = 1 - (tumor volume on day 28 in treatment group - tumor volume on day 1 in treatment group)/(tumor volume on day 28 in control group - tumor volume on day 1 in control group). The toxicity of the compounds was evaluated according to the body weight and state of the mice.
The groups were as follows: 1) solvent control group; 2) PD-1+Reg group; 3) Compound 1 group; 4) Reference Compound group; 5) compound 1 (10mg/kg) and PD-1+Reg Combination group; 6) compound 1 (30mg/kg) and PD-1+Reg Combination group; 7) compound 1 (90mg/kg) and PD-1+Reg Combination group; 8) Reference Compound (10mg/kg) and PD-1+Reg Combination group; 9) Reference Compound (30mg/kg) and PD-1+Reg Combination group; 10) Reference Compound (90mg/kg) and PD-1+Reg Combination group, with 6 mice per group.
Reg represents Regorafenib PD-1 represents an anti-PD-1 antibody; IV represents administration via intravenous injection; PO represents oral administration; QD represents once-daily administration; QW represents once-weekly administration; CR represents complete remission (complete disappearance of the tumor after the dosing cycle is completed); PR represents partial response (tumor volume reduction exceeding 30% relative to the initial volume upon completion of the administration cycle); SD represents stable disease (tumor volume reduction or growth not exceeding 30% relative to the initial volume upon completion of the administration cycle); Died represents mouse died before the dosing cycle is completed; Administration period* is once daily (QD) for 10 consecutive days, followed by a 16-day off-treatment period; the once-weekly (QW) regimen is administered only on Day 1 and Day 8.
A short description of series [9]: Stability in liver microsomes. As to conditions: for half-life at 1 µM: 1 µM compound, 37 °C, NADPH regeneration system. The format is in vitro ADME. As to the method:
After the 1 µM compound was individually incubated at 37 °C for various durations with […] liver microsomes from humans, monkeys, beagles, rats, or mice in the presence of an NADPH regeneration system, LC-MS-MS was used to analyze the remaining amount of the compound, and T1/2 was calculated. Table 10. Evaluation results of stability of compounds of the present disclosure in human and mouse liver microsomes

Sequence of HDAC2 (Q92769 whole entry, species assumed): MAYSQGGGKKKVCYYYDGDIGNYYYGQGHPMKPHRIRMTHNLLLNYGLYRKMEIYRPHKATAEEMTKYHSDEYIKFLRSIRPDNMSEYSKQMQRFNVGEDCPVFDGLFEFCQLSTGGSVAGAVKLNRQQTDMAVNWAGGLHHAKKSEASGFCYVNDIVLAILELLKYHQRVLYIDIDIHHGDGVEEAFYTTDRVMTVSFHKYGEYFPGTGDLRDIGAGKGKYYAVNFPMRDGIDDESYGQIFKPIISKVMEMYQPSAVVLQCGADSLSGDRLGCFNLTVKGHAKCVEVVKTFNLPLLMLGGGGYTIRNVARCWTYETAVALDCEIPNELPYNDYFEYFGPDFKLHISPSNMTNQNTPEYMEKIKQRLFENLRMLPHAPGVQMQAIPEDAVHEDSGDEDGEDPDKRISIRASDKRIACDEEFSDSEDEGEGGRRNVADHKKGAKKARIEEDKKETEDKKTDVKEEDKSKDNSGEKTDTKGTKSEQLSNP
Sequence of HDAC9 (Q9UKV0 whole entry, species assumed): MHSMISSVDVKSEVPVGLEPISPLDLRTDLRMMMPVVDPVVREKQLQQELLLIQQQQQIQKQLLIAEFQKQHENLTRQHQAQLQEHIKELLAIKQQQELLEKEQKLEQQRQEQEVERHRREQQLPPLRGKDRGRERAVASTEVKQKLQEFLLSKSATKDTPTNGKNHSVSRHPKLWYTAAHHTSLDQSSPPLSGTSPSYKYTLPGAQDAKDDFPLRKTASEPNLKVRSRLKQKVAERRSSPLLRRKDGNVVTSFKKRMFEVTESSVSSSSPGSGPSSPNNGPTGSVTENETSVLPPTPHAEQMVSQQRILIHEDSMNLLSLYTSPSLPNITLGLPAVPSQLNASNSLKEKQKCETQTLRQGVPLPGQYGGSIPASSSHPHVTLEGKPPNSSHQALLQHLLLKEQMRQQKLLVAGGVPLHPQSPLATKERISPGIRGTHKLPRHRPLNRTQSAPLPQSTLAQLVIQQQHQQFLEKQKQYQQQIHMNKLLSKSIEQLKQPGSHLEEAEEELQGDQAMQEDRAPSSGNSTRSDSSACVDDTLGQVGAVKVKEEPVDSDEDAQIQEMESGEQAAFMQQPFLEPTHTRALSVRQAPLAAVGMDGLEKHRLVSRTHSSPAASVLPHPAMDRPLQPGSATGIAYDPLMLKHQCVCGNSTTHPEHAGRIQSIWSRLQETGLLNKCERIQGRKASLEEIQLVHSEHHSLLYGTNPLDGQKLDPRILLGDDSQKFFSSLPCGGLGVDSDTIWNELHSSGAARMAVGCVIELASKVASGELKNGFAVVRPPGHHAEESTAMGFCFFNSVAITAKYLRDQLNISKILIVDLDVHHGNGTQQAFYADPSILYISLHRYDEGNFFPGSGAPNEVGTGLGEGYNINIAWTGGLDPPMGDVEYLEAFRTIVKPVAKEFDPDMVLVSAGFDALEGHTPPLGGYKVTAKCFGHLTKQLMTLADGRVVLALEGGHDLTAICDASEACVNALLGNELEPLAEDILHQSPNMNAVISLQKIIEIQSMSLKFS
Sequence of HDAC4 (P56524 whole entry, species assumed): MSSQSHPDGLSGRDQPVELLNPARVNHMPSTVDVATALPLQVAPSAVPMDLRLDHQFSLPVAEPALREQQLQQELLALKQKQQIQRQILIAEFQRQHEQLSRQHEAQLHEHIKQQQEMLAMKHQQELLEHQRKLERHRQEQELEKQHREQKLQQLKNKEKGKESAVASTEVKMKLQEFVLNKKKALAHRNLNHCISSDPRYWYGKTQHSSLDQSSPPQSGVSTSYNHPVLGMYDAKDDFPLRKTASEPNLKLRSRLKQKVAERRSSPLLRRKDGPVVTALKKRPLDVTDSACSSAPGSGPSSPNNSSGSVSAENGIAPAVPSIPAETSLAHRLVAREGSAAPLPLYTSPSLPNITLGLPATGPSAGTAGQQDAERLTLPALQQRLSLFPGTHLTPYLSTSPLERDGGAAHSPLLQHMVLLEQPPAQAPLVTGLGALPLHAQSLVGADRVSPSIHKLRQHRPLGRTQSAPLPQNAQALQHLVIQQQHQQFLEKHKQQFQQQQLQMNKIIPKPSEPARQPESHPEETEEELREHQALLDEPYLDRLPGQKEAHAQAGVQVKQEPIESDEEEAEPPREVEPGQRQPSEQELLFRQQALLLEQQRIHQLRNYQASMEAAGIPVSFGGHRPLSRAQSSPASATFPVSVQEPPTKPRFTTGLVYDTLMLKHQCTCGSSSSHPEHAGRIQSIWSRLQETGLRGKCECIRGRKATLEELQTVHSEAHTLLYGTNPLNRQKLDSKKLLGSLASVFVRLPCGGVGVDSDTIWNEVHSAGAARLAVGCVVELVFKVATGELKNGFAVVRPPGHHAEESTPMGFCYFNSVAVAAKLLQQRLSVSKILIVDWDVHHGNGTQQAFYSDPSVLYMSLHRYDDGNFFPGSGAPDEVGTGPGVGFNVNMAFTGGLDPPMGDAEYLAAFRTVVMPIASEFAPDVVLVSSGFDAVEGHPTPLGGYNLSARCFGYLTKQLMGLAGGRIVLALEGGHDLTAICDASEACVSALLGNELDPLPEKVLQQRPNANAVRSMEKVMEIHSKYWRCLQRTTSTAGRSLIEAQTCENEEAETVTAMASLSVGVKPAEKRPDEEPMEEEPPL

For `CS(C)(=O)=Nc1ccc(C(=O)Nc2cc(-c3ccc(F)cc3)ccc2N)cc1` [Compound 1, N-(4-Amino-4'-fluoro-[1,1'-biphenyl]-3-yl)-4-((dimethyl(oxo)-1^λ-6-sulfaneylidene)amino)benzamide], in series [1], the “H3K 27 Acetyl lysine Maximum (%)” value stood at 200%. The “H3K 27 Acetyl lysine Minimum effective concentration” value in series [1] stood at 80 nM. Besides, the IC50 is over 30 µM in series [2]; under 0.5 µM in [3] (Table 4, read-out: IC50 HDAC2); 0.03 to 0.3 µM in series [3] (Table 5, read-out: IC50 HDAC2); 0.141 µM in series [3] (Table 6, read-out: IC50 HDAC subtype 2); over 30 µM in [4]; over 30 µM in series [5]. Also, the IC50 in series [6] and in [7] was over 30 µM throughout. Moreover, the “Change in body weight(%)” value in series [8] (monotherapy 90 mg/kg QD PO) was 11.08 ± 1.08%. Besides, the “Tumor response, number of mice (CR/PR/SD)” value in [8] (monotherapy 90 mg/kg QD PO, CR complete remission, PR partial response, SD stable disease, 6 mice per group) came out at 5CR. The “TGI(%)” value in [8] (monotherapy 90 mg/kg, QD for 10 consecutive days, PO) turned out to be 100.54%. Further, the “complete tumor regression, % of mice” value in series [8] (monotherapy group (5/6)) is recorded as 83.3%. Besides, the CLint scaled at 1 µM in series [9] (Human liver microsomes) amounted to 1.04 L/h/kg; in series [9] (Mouse liver microsomes), 0.333 L/h/kg. The results for the Clliver in series [9] (Human liver microsomes) and in [9] (Mouse liver microsomes) were 0.567 L/h/kg and 0.314 L/h/kg, respectively. In addition, the half-life at 1 µM in series [9] (Human liver microsomes) worked out at 1.67 h; in [9] (Mouse liver microsomes), 16.4 h.
